Paper PMC11075021, “Asymmetric Synthesis of Chiral 2-Cyclohexenones with Quaternary Stereocenters via Ene-Reductase Catalyzed Desymmetrization of 2,5-Cyclohexadienones” (ACS Catalysis, 2024)

Molecular target: T1, YqjM (Bacillus subtilis, UniProt P54550)
T1 construct: gene namA; wild type, purified recombinant enzyme; dimer, both protomers line the active site
T1 sequence (P54550 2-338): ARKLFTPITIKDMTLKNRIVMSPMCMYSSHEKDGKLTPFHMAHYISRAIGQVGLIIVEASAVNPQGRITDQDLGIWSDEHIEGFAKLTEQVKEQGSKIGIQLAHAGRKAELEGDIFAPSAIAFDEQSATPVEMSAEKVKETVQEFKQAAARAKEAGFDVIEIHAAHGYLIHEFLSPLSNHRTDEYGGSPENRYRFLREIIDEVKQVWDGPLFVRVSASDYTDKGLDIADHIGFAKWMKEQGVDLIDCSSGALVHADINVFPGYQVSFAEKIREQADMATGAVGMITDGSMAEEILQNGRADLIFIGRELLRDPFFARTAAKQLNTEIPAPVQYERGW
Test: stopped-flow oxidation of prereduced enzyme
Assay type: biochemical
Details: anoxic; no kinetic saturation in the accessible range

With C[C@@]1(c2ccccc2)C=CC(=O)CC1 [2a, cyclohexenone 2a] the “kobs at 800 μM” value was “Both compounds oxidized prereduced YqjM relatively slowly”.
